Test results: patent US20240216464A1, “IL1RA DERIVED PEPTIDES FOR TREATMENT OF DIABETIC NEPHROPATHY” (SERODUS APS, priority 2021, published 2024)
“Also recorded” adds a separate entry of the source. Ends that are not written are not given here.

Key:
[1] = tested on: Renin AAV Uni-nephrectomized db/db (Renin AAV UNx) mice; test: Renin AAV uni-nephrectomized db/db mouse model of diabetic nephropathy, 77 days treatment; format: in vivo
Protocol: 56 female mice (BKS.Cg-Dock7m+/+ Lepradb/db BLKS, 5 weeks of age) were transferred to the Gubra Research animal unit. The animals were group housed until uni-nephrectomies, then single housed. Throughout the habituation and study period the animals were in a light-, temperature- and humidity-controlled room with free access to food and water. All animal experiments were conducted in accordance with Gubra bioethical guidelines, which are fully compliant to internationally accepted principles for the care and use of laboratory animals.
Animals were terminated on day 77; blood was taken for later analysis, body weight was recorded, and spot urine was collected.
SER140 was provided by Phlogo ApS, Copenhagen, Denmark (10 mg/ml miliQ water diluted to the different dose formulations). SER140 is a dendrimer composed of four monomeric peptides each with the sequence SGRKSSKMQA (SEQ ID NO:1), and coupled to a lysine backbone. Vehicle was miliQ:PBS 1:5.
After one week of acclimatization the mice received an IV injection of Renin adenosin-associated virus (AAV). […]
All blood samples were taken from the mice tail in heparinized tubes, plasma was separated and stored at minus 80 C until analysis. Non-fasting BG (blood glucose) was measured using BIOSEN c-line glucose meter (EKF-diagnostics, Germany), blood for HbA1c analysis was immediately suspended in Hemolyzing Reagent and stored until analysis using autoanalyzer Cobas C-111 with commercial kit (Roche Diagnostics, Germany), plasma urea using commercial kits (Roche Diagnostics).
Urine samples were stored at minus 80 C until analysis. Urine for measurement of albumin and creatinine were centrifuged at 2000 g for 2 min prior to analysis Urine albumin was measure using a commercial ELISA kit (Bethyl Laboratories, Inc.), according to the manufacturer's instructions, and urine creatinine was measured using a commercial kit (Roche Diagnostics) on the Cobas c 501 autoanalyzer, according to the manufacturer's instructions. Urinary KIM-1 was measured using a commercial ELISA kit (R&D Systems), according to the manufacturer's instructions.

IL-1R1 = biological target: T1, IL-1R1 (Homo sapiens, UniProt P14778); details: cited from earlier work
T1 sequence (P14778 18-569): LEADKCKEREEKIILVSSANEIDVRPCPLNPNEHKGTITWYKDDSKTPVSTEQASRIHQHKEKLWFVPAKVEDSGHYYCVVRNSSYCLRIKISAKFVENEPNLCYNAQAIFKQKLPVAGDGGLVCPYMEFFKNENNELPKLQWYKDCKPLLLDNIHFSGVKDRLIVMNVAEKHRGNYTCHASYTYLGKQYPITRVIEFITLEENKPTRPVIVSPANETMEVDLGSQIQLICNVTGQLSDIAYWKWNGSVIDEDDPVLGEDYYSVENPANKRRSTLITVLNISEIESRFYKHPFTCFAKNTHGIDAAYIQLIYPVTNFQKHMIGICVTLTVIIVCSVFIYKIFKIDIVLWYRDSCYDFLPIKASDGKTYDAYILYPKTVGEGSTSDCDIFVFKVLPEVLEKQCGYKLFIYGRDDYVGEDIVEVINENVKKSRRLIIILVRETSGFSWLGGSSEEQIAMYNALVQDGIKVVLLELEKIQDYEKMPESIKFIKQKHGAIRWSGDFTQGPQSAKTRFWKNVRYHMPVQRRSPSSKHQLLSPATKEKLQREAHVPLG

macrophages = details: downstream of IL-1 receptor activation; cited from earlier work

Substance | urinary albumin corrected for creatinine (ACR) ([1]; spot urine, day 77, 3, 10 and 20 mg/kg SER140 subcutaneously once daily vs vehicle, FIG. 1 (medians)) | urinary KIM-1 corrected for creatinine (KIM-1/CR) ([1]; spot urine, day 77, 3, 10 and 20 mg/kg SER140 subcutaneously once daily vs vehicle, FIG. 2 (means)) | HbA1c ([1]; vehicle vs SER140 treatment) | receptor binding of IL-1p (IL-1R1) | macrophages liberation / secretion of TNFα (macrophages)
SER140: dendrimer composed of four monomeric peptides each with the sequence SGRKSSKMQA (SEQ ID NO:1), coupled to a lysine backbone (also: tetrameric dendrimer: four copies coupled to a lysine backbone) | decreased; also recorded: significantly reduced | decreased; also recorded: significantly reduced | no changes | inhibit | reduce
SGRKSSKMQA (Variant of fragment of IL1RA) [SEQ ID NO:1, 10-amino acid peptide derived from IL1RA] |  |  |  |  | inhibit
